According to patent publication US20090209507A1, “15-O-Desmethylmacbecin Derivatives and Their Use in the Treatment of Cancer or B-Cell Malignancies” (priority 2006, published 2009):

Assays:
[1] = test system: CNXF 498NL; assay: monolayer proliferation assay (modified propidium iodide assay), CNXF 498NL; assay type: cell-based, human; details: CNXF 498NL (CNS), 4 days continuous exposure
Procedure: (§1) In vitro evaluation of compounds for anticancer activity in a panel of human tumour cell lines in a monolayer proliferation assay was carried out at the Oncotest Testing Facility, Institute for Experimental Oncology, Oncotest GmbH, Freiburg.
(§2) The Oncotest cell lines were established from human tumor xenografts as described by Roth et al., (1999). The origin of the donor xenografts was described by Fiebig et al., (1999). Other cell lines are either obtained from the NCI (DU145, MCF-7) or purchased from DSMZ, Braunschweig, Germany.
(§3) All cell lines, unless otherwise specified, were grown at 37° C. in a humidified atmosphere (95% air, 5% CO2) in a ‘ready-mix’ medium containing RPMI 1640 medium, 10% fetal calf serum, and 0.1 mg/mL gentamicin (PAA, Cölbe, Germany).
(§4) A modified propidium iodide assay was used to assess the effects of the test compound(s) on the growth of the human tumour cell lines (Dengler et al., (1995)).
(§5) Briefly, cells were harvested from exponential phase cultures by trypsinization, counted and plated in 96 well flat-bottomed microtitre plates at a cell density dependent on the cell line (5-10.000 viable cells/well). […] After thawing the plates, fluorescence was measured using the Cytofluor 4000 microplate reader (excitation 530 nm, emission 620 nm), giving a direct relationship to the total number of viable cells.
(§6) Growth inhibition is expressed as treated/control×100 (% T/C). […]

[2] = test system: CXF HT29; assay: monolayer proliferation assay (modified propidium iodide assay), CXF HT29; assay type: cell-based, human; details: CXF HT29 (Colon), 4 days continuous exposure
Procedure: as §1, §2, §3, §4, §5, §6

[3] = test system: LXF 1121L; assay: monolayer proliferation assay (modified propidium iodide assay), LXF 1121L; assay type: cell-based, human; details: LXF 1121L (Lung, large cell ca), 4 days continuous exposure
Procedure: as §1, §2, §3, §4, §5, §6

[4] = test system: MCF-7; assay: monolayer proliferation assay (modified propidium iodide assay), MCF-7; assay type: cell-based, human; details: MCF-7 (Breast), 4 days continuous exposure
Procedure: as §1, §2, §3, §4, §5, §6

[5] = test system: MEXF 394NL; assay: monolayer proliferation assay (modified propidium iodide assay), MEXF 394NL; assay type: cell-based, human; details: MEXF 394NL (Melanoma), 4 days continuous exposure
Procedure: as §1, §2, §3, §4, §5, §6

[6] = test system: DU145; assay: monolayer proliferation assay (modified propidium iodide assay), DU145; assay type: cell-based, human; details: DU145 (Prostate - PTEN positive), 4 days continuous exposure
Procedure: as §1, §2, §3, §4, §5, §6

[7] = test system: Reverse transcriptase; details: cited from earlier work
[8] = biological target: terminal deoxynucleotidyl transferase (Homo sapiens, UniProt P04053); details: cited from earlier work
Sequence of terminal deoxynucleotidyl transferase (P04053 whole entry, species assumed): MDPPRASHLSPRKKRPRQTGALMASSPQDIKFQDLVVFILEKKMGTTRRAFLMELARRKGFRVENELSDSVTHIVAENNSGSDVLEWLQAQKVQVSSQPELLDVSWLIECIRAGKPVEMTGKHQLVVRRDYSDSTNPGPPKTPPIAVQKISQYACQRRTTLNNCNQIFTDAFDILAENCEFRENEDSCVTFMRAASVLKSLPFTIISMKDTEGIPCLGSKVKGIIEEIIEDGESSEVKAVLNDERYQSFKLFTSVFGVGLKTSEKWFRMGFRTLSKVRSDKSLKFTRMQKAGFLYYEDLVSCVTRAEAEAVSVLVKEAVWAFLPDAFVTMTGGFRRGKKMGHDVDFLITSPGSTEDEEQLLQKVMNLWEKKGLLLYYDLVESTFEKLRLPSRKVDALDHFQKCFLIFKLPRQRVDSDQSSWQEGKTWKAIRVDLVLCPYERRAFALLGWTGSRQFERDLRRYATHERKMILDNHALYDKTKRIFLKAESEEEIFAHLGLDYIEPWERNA

CO[C@H]1[C@@H](OC)C[C@H](C)[C@@H](O)C2=CC(=O)C=C(NC(=O)/C(C)=C/C=C\[C@H](C)[C@@H](OC(N)=O)/C(C)=C/[C@@H]1C)C2=O [Compound 14, 15-O-desmethylmacbecin]
Test/Control (%) at drug concentration ([1]; 1 μg/mL): 49.3%
Test/Control (%) at drug concentration ([1]; 10 μg/mL): 4.7%
Test/Control (%) at drug concentration ([2]; 1 μg/mL): 58.3%
Test/Control (%) at drug concentration ([2]; 10 μg/mL): 7.7%
Test/Control (%) at drug concentration ([3]; 1 μg/mL): 63%
Test/Control (%) at drug concentration ([3]; 10 μg/mL): 6%
Test/Control (%) at drug concentration ([4]; 1 μg/mL): 65.3%
Test/Control (%) at drug concentration ([4]; 10 μg/mL): 15.3%
Test/Control (%) at drug concentration ([5]; 1 μg/mL): 17%
Test/Control (%) at drug concentration ([5]; 10 μg/mL): 2.3%
Test/Control (%) at drug concentration ([6]; 1 μg/mL): 49.7%
Test/Control (%) at drug concentration ([6]; 10 μg/mL): 6%

CO[C@H]1[C@@H](OC)C[C@H](C)[C@@H](OC)C2=CC(=O)C=C(NC(=O)/C(C)=C/C=C\[C@H](C)[C@@H](OC(N)=O)/C(C)=C/[C@@H]1C)C2=O [Macbecin, macbecin]
Reverse transcriptase activity inhibition [7]: not inhibited
terminal deoxynucleotidyl transferase activity inhibition [8]: not inhibited
